According to patent publication US20220378807A1, “DELIVERY OF A COOLING AGENT TO THE PHARYNGEAL-ESOPHAGEAL SURFACE” (priority 2019, published 2022):
Converted amounts (≈) assume the structure as drawn. “Also recorded” adds a separate entry of the source. Like-named read-outs stand apart in the source and are kept apart here.

Legend:
Oral Cavity and Pharynx [1] = assay: Study 2: sensory qualities of compounds applied to oral cavity and pharynx; type: in vivo, human; conditions: for sensations produced (cooling intensity, cold discomfort, adverse taste): ~0.8 mL per dose to base of tongue, four volunteers
Method: Tests were on four volunteers, with 3 to 5 trials per substance. Compounds were prepared in cherry-flavored Shaped-Gel at 5 mg/mL and administered ˜0.8 mL per dose with a 2 mL plastic vial to the base of the tongue. The subjects asked to rate the sensations for cooling intensity, cold discomfort and adverse taste.

[2] = molecular target: T1, TRPA1 channels (human TRPA1 gene expressed in CHO cells) (Homo sapiens, UniProt O75762); conditions: data in Yang et al. BMC Ophthalmology 17:101 and Wei US 9,956,232; cited from earlier work
T1 construct: expressed in transfected cells; host or cells: CHO cells
T1 sequence (O75762 whole entry): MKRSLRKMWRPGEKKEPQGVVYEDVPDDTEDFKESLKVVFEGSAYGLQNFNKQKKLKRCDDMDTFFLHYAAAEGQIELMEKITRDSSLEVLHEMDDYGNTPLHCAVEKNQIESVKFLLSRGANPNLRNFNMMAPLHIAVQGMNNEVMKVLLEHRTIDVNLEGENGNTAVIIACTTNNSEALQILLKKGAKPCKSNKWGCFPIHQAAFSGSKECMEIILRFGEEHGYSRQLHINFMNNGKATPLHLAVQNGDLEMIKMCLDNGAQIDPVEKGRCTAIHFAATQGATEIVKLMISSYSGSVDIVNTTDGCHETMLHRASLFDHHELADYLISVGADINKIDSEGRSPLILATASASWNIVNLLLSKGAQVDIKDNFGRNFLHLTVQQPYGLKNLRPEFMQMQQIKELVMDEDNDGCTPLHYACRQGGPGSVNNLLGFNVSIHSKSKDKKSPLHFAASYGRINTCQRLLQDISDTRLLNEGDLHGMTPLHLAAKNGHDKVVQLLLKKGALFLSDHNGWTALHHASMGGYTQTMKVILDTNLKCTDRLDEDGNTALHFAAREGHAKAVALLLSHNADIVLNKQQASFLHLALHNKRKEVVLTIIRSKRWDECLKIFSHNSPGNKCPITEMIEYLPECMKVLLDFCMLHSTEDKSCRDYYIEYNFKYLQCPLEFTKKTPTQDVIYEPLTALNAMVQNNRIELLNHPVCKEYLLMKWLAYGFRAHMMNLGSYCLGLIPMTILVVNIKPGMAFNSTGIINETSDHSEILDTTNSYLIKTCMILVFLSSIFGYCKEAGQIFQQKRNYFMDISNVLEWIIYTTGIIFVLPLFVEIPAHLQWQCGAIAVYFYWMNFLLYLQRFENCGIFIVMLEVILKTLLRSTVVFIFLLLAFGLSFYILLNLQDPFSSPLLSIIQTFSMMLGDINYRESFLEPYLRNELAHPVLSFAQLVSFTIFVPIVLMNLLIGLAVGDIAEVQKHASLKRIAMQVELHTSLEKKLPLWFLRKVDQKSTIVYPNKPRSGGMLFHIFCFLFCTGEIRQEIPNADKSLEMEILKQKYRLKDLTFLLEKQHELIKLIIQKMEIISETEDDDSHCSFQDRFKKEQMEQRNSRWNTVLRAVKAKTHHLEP

[3] = molecular target: T2, TRPV1 channels (human TRPV1 gene expressed in HEK293 cells) (Homo sapiens, UniProt Q8NER1); conditions: data in Yang et al. BMC Ophthalmology 17:101 and Wei US 9,956,232; cited from earlier work
T2 construct: expressed in transfected cells; host or cells: HEK293 cells
T2 sequence (Q8NER1 whole entry): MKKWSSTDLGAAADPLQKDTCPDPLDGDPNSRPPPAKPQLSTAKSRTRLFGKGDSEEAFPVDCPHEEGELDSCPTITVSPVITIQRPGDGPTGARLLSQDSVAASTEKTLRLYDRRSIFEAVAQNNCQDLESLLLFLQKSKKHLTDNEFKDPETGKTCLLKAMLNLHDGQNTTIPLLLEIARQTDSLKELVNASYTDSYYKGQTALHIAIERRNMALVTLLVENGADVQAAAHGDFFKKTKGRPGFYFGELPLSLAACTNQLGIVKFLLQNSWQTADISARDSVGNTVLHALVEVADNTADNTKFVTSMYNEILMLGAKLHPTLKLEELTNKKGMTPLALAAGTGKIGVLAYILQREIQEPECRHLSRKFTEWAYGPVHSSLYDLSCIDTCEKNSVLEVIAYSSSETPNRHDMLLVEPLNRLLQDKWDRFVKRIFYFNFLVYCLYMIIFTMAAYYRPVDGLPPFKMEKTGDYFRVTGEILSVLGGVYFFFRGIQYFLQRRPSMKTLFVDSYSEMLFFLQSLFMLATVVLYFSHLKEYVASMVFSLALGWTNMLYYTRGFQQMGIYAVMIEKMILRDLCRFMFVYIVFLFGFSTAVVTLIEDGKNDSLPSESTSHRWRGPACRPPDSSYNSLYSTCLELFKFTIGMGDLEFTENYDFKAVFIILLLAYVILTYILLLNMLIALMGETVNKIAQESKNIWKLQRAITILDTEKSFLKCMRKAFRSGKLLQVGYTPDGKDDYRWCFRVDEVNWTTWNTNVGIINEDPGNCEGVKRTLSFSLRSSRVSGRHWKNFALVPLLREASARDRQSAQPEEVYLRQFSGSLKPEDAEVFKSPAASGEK

[4] = molecular target: T3, cloned hTRPM8 channel (human TRPM8 gene, expressed in CHO cells) (Homo sapiens, UniProt Q7Z2W7); assay: TRPM8 agonist activity, Fluo-8 calcium FLIPR assay; type: cell-based; conditions: for Relative Potency to L-menthol: from TRPM8 EC50, menthol = 1.0; for Potency relative to menthol / EC50: p-menthane compounds, Table 8; for EC50: 95% limits printed in line below
T3 construct: host or cells: CHO cells
T3 sequence (Q7Z2W7 whole entry): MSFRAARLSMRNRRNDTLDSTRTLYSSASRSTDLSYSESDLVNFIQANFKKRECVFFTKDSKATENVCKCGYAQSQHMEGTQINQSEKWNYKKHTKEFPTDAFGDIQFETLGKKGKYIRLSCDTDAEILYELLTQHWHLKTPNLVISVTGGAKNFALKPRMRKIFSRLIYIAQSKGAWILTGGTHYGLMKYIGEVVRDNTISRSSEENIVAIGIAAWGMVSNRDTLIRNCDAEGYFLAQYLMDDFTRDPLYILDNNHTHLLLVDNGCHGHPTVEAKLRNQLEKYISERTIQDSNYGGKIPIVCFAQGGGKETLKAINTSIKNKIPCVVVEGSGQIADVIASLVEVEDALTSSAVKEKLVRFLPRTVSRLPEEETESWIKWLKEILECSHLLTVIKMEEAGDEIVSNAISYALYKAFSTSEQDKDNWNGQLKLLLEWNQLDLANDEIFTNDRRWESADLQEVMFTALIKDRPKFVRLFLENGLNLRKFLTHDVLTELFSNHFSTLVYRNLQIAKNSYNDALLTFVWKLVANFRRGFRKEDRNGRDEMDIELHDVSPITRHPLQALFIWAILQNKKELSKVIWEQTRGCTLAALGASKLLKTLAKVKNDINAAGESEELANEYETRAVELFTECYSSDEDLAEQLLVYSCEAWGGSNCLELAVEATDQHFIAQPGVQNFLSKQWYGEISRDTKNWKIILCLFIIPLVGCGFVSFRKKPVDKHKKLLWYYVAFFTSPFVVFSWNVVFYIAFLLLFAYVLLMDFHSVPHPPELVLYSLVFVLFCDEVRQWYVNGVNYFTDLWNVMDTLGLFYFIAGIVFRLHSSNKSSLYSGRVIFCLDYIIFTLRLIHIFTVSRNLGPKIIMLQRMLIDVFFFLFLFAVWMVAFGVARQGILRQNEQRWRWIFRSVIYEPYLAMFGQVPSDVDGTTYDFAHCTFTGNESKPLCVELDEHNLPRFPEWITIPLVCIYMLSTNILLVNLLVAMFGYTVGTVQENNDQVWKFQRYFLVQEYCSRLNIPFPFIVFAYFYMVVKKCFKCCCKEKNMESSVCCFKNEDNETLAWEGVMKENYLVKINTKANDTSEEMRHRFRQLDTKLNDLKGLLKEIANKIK
Method: In the first set of data, the potency and in vitro effects of test compounds were evaluated on cloned hTRPM8 channel (encoded by the human TRPM8 gene, expressed in CHO cells) using a Fluo-8 calcium kit and a Fluorescence Imaging Plate Reader (FLIPR^TETRATM) instrument. […] Test solutions were in HEPES-buffered saline, 384-well plates, and placed into the FLIPR instrument (Molecular Devices Corporation, Union City, Calif., USA). […] The test cells were Chinese Hamster Ovary (CHO) cells stably transfected with human TRPM8 cDNAs. The concentration-response data were analyzed via FLIPR Control software and fitted to a Hill equation for the EC50.

Eyelids Surfaces = assay: Cooling on eyelid surfaces; type: in vivo; conditions: p-menthane compounds, Table 8
Philtrum Skin = assay: Cooling on philtrum skin; type: in vivo; conditions: p-menthane compounds, Table 8
[5] = test system: throat (Adam's apple, jugular notch, upper chest); type: in vivo, human; parameters: key to Jugular Notch / Sternum: cooling rated on a 0-3 scale; Onset: unit not given here; conditions: for Discomfort: in vivo; for Duraton: duration of cooling after swallowing Shaped-Gel; for Onset: onset of cooling after swallowing Shaped-Gel, no unit in head (min); for Jugular Notch: cooling felt at jugular notch
Method: Shaped-Gel having total weight of 0.4 to 1.2 g containing 0.4 to 1.5% by weight (5 mg/g to 15 mg/g) are prepared and tested. The following examples illustrate the invention, but are not intended to limit the scope of the present invention. A Shaped-Gel in accordance with the present invention was prepared with the following composition.
Shaped-Gels were prepared by these procedures. First step, the cooling agent was accurately weighed and place in a 60 mL plastic container. Then glycerol, water, and gelatin was added to the container and centrifuged for 2 min in a SpeedMixer (FlackTek, Inc.) at 3000 rpm. Then gelatin powder was added and the mixture centrifuged for 3 min. The container was warmed by placing it in a beaker containing hot water (80-85° C.) for 15 min. The container was then centrifuged for 5 min. The liquid mix was cooled and dispensed onto silicon molds with a plastic dropper, and placed in a refrigerator. After one hour, the gels were solidified, removed from the mold with a plastic tweezer, weighed and placed on wax paper and later stored in blister pockets. […] In preliminary studies, the shape of the Shaped-Gel was varied. Square, rectangular, spherical, hemispherical, toroidal, and pentagram Shaped-Gels were prepared at sizes ranging from 0.4 to 1.2 g. A flat shape wherein the shortest diameter was about 20% of the longest axis was preferred because it could be placed flat on the back of the tongue. A Shaped-Gel shaped as a rectangular prism of 2.75 mm×15 mm×15 mm=0.63 cm3 and weighing ˜0.6 g was acceptable to subjects. A toroid, much like a “LiveSaver” mint was also acceptable if the size was ˜0.8 g. Test Panel: The volunteers for testing the Shaped-Gel were six subjects, four males and two females, aged 50 to 76 years. Each Shaped-Gel was tested for at least four trials in at least three subjects. The concentration of the cooling agent in the Shaped-Gel varied from 0.5 to 2%. The duration of observation for each trial usually lasted for not more than 1.5 hours. Subjects were instructed to swallow the Shaped-Gel with a sip of […] water. Cooling sensations were rated on a scale of 0, 1, 2, 3, at intervals of 3 min, 5 min, and then at 10 min intervals. If a cooling value exceeded 2, the subject noted whether the cooling was felt at the level of the Adam's apple, jugular notch or upper chest. Ancillary effects were also recorded.

[6] = Water solubility of 1-dialkylphosphinoylalkanes; type: physicochemical; conditions: R1R2R3P=O, by R1,R2 and R3
Oral Cavity and Pharynx [7] = assay: Study 2: sensory qualities of compounds applied to oral cavity and pharynx; type: in vivo, human

In the case of CCCCCCCP(=O)(C(C)C)C(C)C [DIPA-1-7, 1-Di(isopropyl)-phosphinoyl-heptane], the cold discomfort (Oral Cavity and Pharynx [1]; 5 mg/mL) is reported as “icy cold; also recorded: icy pain in the back of the throat”, the “unpleasant taste, description” value (Oral Cavity and Pharynx [1]; 5 mg/mL) is reported as ““metallic”, “organic solvent-like”, and “harsh”” and the “sensations produced (cooling intensity, cold discomfort, adverse taste)” value (from here on “sensations produced”) (Oral Cavity and Pharynx [1]; 5 mg/mL) is reported as “cold, icy cold, and adverse tastes”. The strong metallic taste (Oral Cavity and Pharynx [1]; in vivo) was “present”, the “selectivity: TRPM8 versus TRPA1” value [2] was “Selectivity is also seen” and the “selectivity: TRPM8 versus TRPV1” value [3] was “Selectivity is also seen”. For the same compound, the “Relative Potency to L-menthol” value [4] was 5.4.
For CCCCCP(=O)(C(C)C)C(C)C [DIPA-1-5, 1-Di(isopropyl)-phosphinoyl-pentane], the “Relative Potency to L-menthol” value [4] was 0.7.
In the case of CC(C)OC(=O)C(C)NC(=O)[C@@H]1C[C@H](C)CC[C@H]1C(C)C (stereo partly drawn) [D-Ala-OiPr], the “Eyelids Surfaces” value (Eyelids Surfaces) is reported as 360 min, the “Philtrum Skin” value (Philtrum Skin) is reported as 34 min and the “Potency relative to menthol” value [4] is reported as 14.6.
In the case of CCOC(=O)CNC(=O)[C@@H]1C[C@H](C)CC[C@H]1C(C)C [WS-5], the “Eyelids Surfaces” value (Eyelids Surfaces) is reported as 15 min, the “Philtrum Skin” value (Philtrum Skin) is reported as 24 min and the Discomfort ([5]; both, human) is reported as 0. The Duraton [5] was 25 min, the Onset [5] was roughly 3 and the “Potency relative to menthol” value [4] was 10.6. It also gave an EC50 [4] of 360 nM.
In the case of CCCCCCCCP(=O)(C(C)C)C(C)C [DIPA-1-8, 1-Di(isopropyl)-phosphinoyl-octane], the “unpleasant taste, description” value (Oral Cavity and Pharynx [1]; 5 mg/mL) is reported as ““metallic”, “organic solvent-like”, and “harsh””, the “sensations produced” value (Oral Cavity and Pharynx [1]; 5 mg/mL) is reported as “cold, icy cold, and adverse tastes” and the strong metallic taste (Oral Cavity and Pharynx [1]; in vivo) is reported as “present”. The “selectivity: TRPM8 versus TRPA1” value [2] was “Selectivity is also seen”, the “selectivity: TRPM8 versus TRPV1” value [3] was “Selectivity is also seen” and the “Relative Potency to L-menthol” value [4] was 5.4.
For CC(C)OC(=O)CNC(=O)[C@@H]1C[C@H](C)CC[C@H]1C(C)C [Ax-8], the “Eyelids Surfaces” value (Eyelids Surfaces) was 300 min, the “Philtrum Skin” value (Philtrum Skin) was 27 min and the Duraton [5] was 35 min. The Discomfort [5] was “yes”, the Onset [5] was 5 and the “Potency relative to menthol” value [4] was 7.6. For the same compound, the EC50 [4] was 500 nM.
In the case of CCCCCCP(=O)(C(C)C)C(C)C [DIPA-1-6, 1-Di(isopropyl)-phosphinoyl-hexane], the “Relative Potency to L-menthol” value [4] is reported as 1.6.
Compound CCCCCCC[P@@](=O)(C(C)C)C(C)CC (stereo partly drawn) [3,4-7, 1-(Isopropyl-sec-butyl)-phosphinoyl-heptane] has a solubility [6] of 20 mg/mL (≈ 81.2 mM).
With COc1ccc(NC(=O)[C@@H]2C[C@H](C)CC[C@H]2C(C)C)cc1 [WS-12] the “Jugular Notch” value ([5]; Shaped-Gel) was 0, the Sternum ([5]; cooling felt at sternum, Shaped-Gel) was 0 and the Duraton [5] was 20 min. For the same compound, the Discomfort [5] was 0 and the Onset [5] was 5.
In the case of CCCCCCCCCP(=O)(C(C)C)C(C)C [DIPA-1-9, 1-Di(isopropyl)-phosphinoyl-nonane], the “sensations produced” value (Oral Cavity and Pharynx [1]; 5 mg/mL) is reported as “coolness and cold which was well-tolerated”, the “general sense of refreshment in the throat, persistence” value (Oral Cavity and Pharynx [1]; in vivo) is reported as no less than 3 h and the strong metallic taste (Oral Cavity and Pharynx [1]; in vivo) is reported as “does not have a strong metallic taste”. For the same compound, the “selectivity: TRPM8 versus TRPA1” value [2] was “selective for TRPM8 and not TRPVI and TRPA1”, the “icy cold, pain or discomfort at increased concentration” value (Oral Cavity and Pharynx [7]; 5, 8 to 15 mg/mL, 0.8 mL per dose) was “no pain or discomfort; also recorded: did not produce icy cold or pain” and the “sensation in the oropharynx and esophagus” value (Oral Cavity and Pharynx [7]; optimized concentrations of 5 to 10 mg/mL) was “perfect cool in the oropharynx and esophagus but without cold discomfort”. For the same compound, the “onset of sensation of coolness in the throat” value ([5]; Shaped-Gel applied to base of tongue) was 3 min, the Discomfort ([5]; both, human) was 0 and the Duraton [5] was roughly 60 min. For the same compound, the Onset [5] was less than 3, the “selectivity: TRPM8 versus TRPV1” value [3] was “selective for TRPM8 and not TRPVI and TRPA1” and the “Relative Potency to L-menthol” value [4] was 4.0.
With CC1CCC(C(C)C)C(C(=O)OCC(O)CO)C1 (stereo not drawn) [WS-30] the Duraton [5] was 25 min, the Discomfort [5] was 0 and the Onset [5] was roughly 3.
For CCCCCCCP(=O)(C(C)CC)C(C)CC (stereo not drawn) [DAPA-2-7, 1-Di(sec-butyl)-phosphinoyl-heptane], the “unpleasant taste, description” value (Oral Cavity and Pharynx [1]; 5 mg/mL) was ““metallic”, “organic solvent-like”, and “harsh””, the “sensations produced” value (Oral Cavity and Pharynx [1]; 5 mg/mL) was “cold, icy cold, and adverse tastes” and the “Relative Potency to L-menthol” value [4] was 3.4.
With CCCCCP(=O)(C(C)CC)C(C)CC (stereo not drawn) [DAPA-2-5, 1-di-sec-butyl-phosphorylpentane] the “Relative Potency to L-menthol” value [4] was 2.2.
In the case of CCOC(=O)C(C)NC(=O)[C@@H]1C[C@H](C)CC[C@H]1C(C)C (stereo partly drawn) [D-Ala-OEt], the “Eyelids Surfaces” value (Eyelids Surfaces) is reported as 180 min, the “Philtrum Skin” value (Philtrum Skin) is reported as 103 min and the “Potency relative to menthol” value [4] is reported as 14.0.
In the case of CCCCCCP(=O)(C(C)CC)C(C)CC (stereo not drawn) [DAPA-2-6, 1-Di(sec-butyl)-phosphinoyl-hexane], the “unpleasant taste, description” value (Oral Cavity and Pharynx [1]; 5 mg/mL) is reported as ““metallic”, “organic solvent-like”, and “harsh””, the “sensations produced” value (Oral Cavity and Pharynx [1]; 5 mg/mL) is reported as “cold, icy cold, and adverse tastes” and the “Adam's Apple” value ([5]; cooling felt at Adam's apple, Shaped-Gel) is reported as “+++ icy”. For the same compound, the “Jugular Notch” value ([5]; Shaped-Gel) was “++ icy”, the Duraton [5] was 30 min and the Discomfort [5] was “yes”. The Onset [5] was less than 3 and the “Relative Potency to L-menthol” value [4] was 4.7.
For CCCCCCCCP(=O)(C(C)CC)C(C)CC (stereo not drawn) [DAPA-2-8, 1-Di(sec-butyl)-phosphinoyl-octane], the “unpleasant taste, description” value (Oral Cavity and Pharynx [1]; 5 mg/mL) was ““metallic”, “organic solvent-like”, and “harsh”” and the “Relative Potency to L-menthol” value [4] was 2.9.
With CCCCP(=O)(C(C)CC)C(C)CC (stereo not drawn) [DAPA-2-4, 1-Di(sec-butyl)-phosphinoyl-butane] the “Relative Potency to L-menthol” value [4] was 0.3.
In the case of CCCCCP(=O)(CC(C)C)CC(C)C [DAPA-3-1, 1-di(iso-butyl) phosphinoyl-pentane], the “TRPM8 potency / bioactivity in words” value [4] is reported as “significant loss of bioactivity” and the “Relative Potency to L-menthol” value [4] is reported as 0.2.
In the case of CCC(C)P(=O)(CCC(C)C)C(C)CC (stereo not drawn) [DAPA-3-2, 1-Di(sec-butyl)-phosphinoyl-3-methyl-butane], the “TRPM8 potency / bioactivity in words” value [4] is reported as “significant loss of bioactivity” and the “Relative Potency to L-menthol” value [4] is reported as 0.9.
